Source: patent US8604055B2, “Substituted benzylamino quinolines as cholesterol ester-transfer protein inhibitors” (Dr. Reddy's Laboratories Ltd., priority 2004, dated 2013)

target: T1, Recombinant CETP enzyme (Homo sapiens, UniProt P11597); experiment: In vitro fluorescence-based CETP inhibition assay (BODIPY-CE transfer from donor to acceptor microemulsions); assay type: biochemical; conditions: recombinant CETP 0.14 ng/μl; transfer of fluorescent cholesteryl ester monitored over 2 hours; vs DMSO controls
T1 construct: purchased Cardiovascular Targets
T1 sequence (P11597 18-493): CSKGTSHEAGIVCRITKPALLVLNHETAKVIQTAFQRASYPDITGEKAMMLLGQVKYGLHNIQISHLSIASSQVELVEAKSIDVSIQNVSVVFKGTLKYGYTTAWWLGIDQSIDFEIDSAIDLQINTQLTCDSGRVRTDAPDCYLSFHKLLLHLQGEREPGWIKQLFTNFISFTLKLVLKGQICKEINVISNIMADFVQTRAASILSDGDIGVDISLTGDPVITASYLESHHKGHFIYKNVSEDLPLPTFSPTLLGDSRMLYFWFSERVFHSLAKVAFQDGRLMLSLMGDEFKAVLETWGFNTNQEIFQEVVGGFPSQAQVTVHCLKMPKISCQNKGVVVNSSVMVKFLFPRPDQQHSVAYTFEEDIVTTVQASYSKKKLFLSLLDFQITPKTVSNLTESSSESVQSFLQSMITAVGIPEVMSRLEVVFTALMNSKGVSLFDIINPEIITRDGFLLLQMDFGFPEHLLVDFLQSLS
Procedure: An in vitro fluorescence-based assay to identify CETP inhibitors was developed from modifications of the protocols outlined in Bisgaier et al., J Lipid Res., 34(9): 1625-34 (1993) and Epps et al., Chem Phys Lipids., 77(1): 51-63 (1995). Acceptor and donor lipid microemulsions were prepared according to Bisgaier et al., 1993, except that the buffer was prepared with 0.67 ug/mL human HDL (Calbiochem). Donor microemulsions contained the fluorescent cholesteryl ester analog BODIPY-CE (Molecular Probes), characterized by excitation and emission maxima at 503 nm and 518 nm, respectively. The CETP-mediated transfer of fluorescent cholesteryl ester to acceptor particles was monitored over a 2-hour time period using the FAM filter set (excitation 492 nm, emission 516 nm) in an MX3000P fluorescent plate reader (Stratagene). Recombinant CETP enzyme (Cardiovascular Targets) was used at 0.14 ng/μl, final concentration, to achieve lipid transfer. CETP inhibition by compounds was compared to DMSO controlsand graphed as a percentage of the control CETP activity over 2 hours. The IC50 curves for CETP inhibition were generated from the activity profiles. Active compounds were also tested for CETP inhibition as above, but in the presence of 3% human serum albumin, fraction V (Calbiochem).

Row | SMILES | IC50 [µM]
1 | Cc1cc(N(Cc2cc(C(F)(F)F)cc(C(F)(F)F)c2)Cc2cc3c(C)nn(C)c3nc2N(CC2CC2)CC2CC2)no1 [Example 11, (5-{[(3,5-bis-trifluoromethyl-benzyl)-(5-methyl-isoxazol-3-yl)-amino]-methyl}-1,3-dimethyl-1H-pyrazolo[3,4-b]pyridin-6-yl)-bis-cyclopropylmethyl-amine] | ≤ 1
2 | CCN(CC1CCCC1)c1nc2onc(C)c2cc1CN(Cc1cc(C(F)(F)F)cc(C(F)(F)F)c1)c1nnn(C)n1 [Example 33, (5-{[(3,5-bis-trifluoromethyl-benzyl)-(2-methyl-2H-tetrazol-5-yl)-amino]-methyl}-3-methyl-isoxazolo[5,4-b]pyridine-6-yl)-cyclopentylmethyl-ethyl-amine] | ≤ 1
3 | CCN(CC1CCC1)c1nc2ccccc2cc1CN(Cc1cc(C(F)(F)F)cc(C(F)(F)F)c1)C(=O)OC [Example 45] | ≤ 5
4 | CCN(CC1CCC1)c1nc2c(cnn2C)cc1CN(Cc1cc(C(F)(F)F)cc(C(F)(F)F)c1)c1nnn(C)n1 [Example 12, (5-{[(3,5-bis-trifluoromethyl-benzyl)-(2-methyl-2H-tetrazol-5-yl)-amino]-methyl}-1-methyl-1H-pyrazolo[3,4-b]pyridin-6-yl)-cyclobutylmethyl-ethyl-amine] | ≤ 1
5 | CCN(CC1CCCC1)c1nc2c(cc1CN(Cc1cc(C(F)(F)F)cc(C(F)(F)F)c1)c1nnc(C)o1)CCCC2 [Example 78, (3-{[3,5-bis-trifluoromethyl-benzyl)-(5-methyl-[1,3,4oxadiazol-2-yl)-amino]-methyl}-5,6,7,8-tetrahydroquinoline-2-yl)-cyclopentylmethyl-ethyl-amine] | ≤ 1
6 | CCN(CC1CCCC1)c1nc2ccccc2cc1CN(Cc1cc(C(F)(F)F)cc(C(F)(F)F)c1)c1ccccn1 [Example 69, (3-{[(3,5-bis-trifluoromethyl-benzyl)-pyridin-2-yl-amino]-methyl)-quinolin-2-yl)-cyclopentylmethyl-ethyl-amine] | ≤ 5
7 | CCN(CC1CC1)c1nc2ccccc2cc1CN(Cc1cc(C(F)(F)F)cc(C(F)(F)F)c1)C(=O)OC [Example 44, (3,5-bis-trifluoromethyl-benzyl)-[2-(cyclopropylmethyl-ethyl-amino)-quinolin-3-ylmethyl]-carbamic acid methyl ester] | ≤ 5
8 | CCN(CC1CCC1)c1nc2c(cc1CN(Cc1cc(C(F)(F)F)cc(C(F)(F)F)c1)c1cc(C)on1)c(C)nn2C [Example 10, (5-{[(3,5-bis-trifluoromethyl-benzyl)-(5-methyl-isoxazol-3-yl)-amino]-methyl}-1,3-dimethyl-1H-pyrazolo[3,4-b]pyridin-6-yl)-cyclobutylmethyl-ethyl-amine] | ≤ 1
9 | CCN(CC1CCC1)c1nc2ccccc2cc1CN(Cc1cc(C(F)(F)F)cc(C(F)(F)F)c1)c1nnn(C)n1 [Example 56] | ≤ 1
10 | CCN(CC1CCCC1)c1nc2c(cc1CN(Cc1cc(C(F)(F)F)cc(C(F)(F)F)c1)c1nnn(C)n1)c(C)nn2C [Example 24, (5-{[(3,5-bis-trifluoromethyl-benzyl)-(2-methyl-2H-tetrazol-5-yl)-amino]-methyl}-1,3-dimethyl-1H-pyrazolo[3,4-b]pyridin-6-yl)-cyclopentylmethyl-ethyl-amine] | ≤ 1
11 | CCOC(=O)c1c(CN(Cc2cc(C(F)(F)F)cc(C(F)(F)F)c2)c2nnn(C)n2)c2ccccc2n1C(=O)C1CCCC1 [Example 127, 3-{[(3,5-bis-trifluoromethyl-benzyl)-(2-methyl-2H-tetrazol-5-yl)-amino]-methyl}-1-cyclopentanecarbonyl-1H-indole-2-carboxylic acid ethyl ester] | ≤ 1
12 | CCN(CC1CCC1)c1nc2c(cc1CN(Cc1cc(C(F)(F)F)cc(C(F)(F)F)c1)c1nnn(C)n1)c(C)nn2C [Example 1, (5-{[(3,5-bis-trifluoromethyl-benzyl)-(2-methyl-2H-tetrazole-5-yl)-amino]-methyl}-1,3-dimethyl-1H-pyrazolo[3,4-b]pyridin-6-yl)-cyclobutylmethyl-ethyl-amine] | ≤ 1

The remaining lines, values ahead:

Row | IC50 [µM] | SMILES
13 | ≤ 1 | Cc1cccc2cc(CN(Cc3cc(C(F)(F)F)cc(C(F)(F)F)c3)c3ncnc(Cl)n3)c(N(CC3CC3)CC3CC3)nc12 [Example 117, (3-{[(3,5-bis-trifluoromethyl-benzyl)-(4-chloro-[1,3,5]triazin-2-yl)-amino]-methyl}-8-methyl-quinolin-2-yl)-bis-cyclopropylmethyl-amine]
14 | ≤ 5 | CCCCN(CC)c1ncccc1CN(Cc1cc(C(F)(F)F)cc(C(F)(F)F)c1)c1nnn(C)n1 [Example 73]
15 | ≤ 5 | CCCN(CC1CCCC1)c1nc2ccccc2cc1CN(Cc1cc(C(F)(F)F)cc(C(F)(F)F)c1)C(=O)OCC [Example 43, (3,5-bis-trifluoromethyl-benzyl)-[2-(cyclopentylmethyl-propyl-amino)-quinolin-3-ylmethyl]-carbamic acid ethyl ester]
16 | ≤ 1 | Cn1nnc(N(Cc2cc(C(F)(F)F)cc(C(F)(F)F)c2)Cc2cc3cccc(Cl)c3nc2N(CC2CC2)CC2CC2)n1 [Example 90]
17 | ≤ 1 | CCn1ncc2cc(CN(Cc3cc(C(F)(F)F)cc(C(F)(F)F)c3)c3nnn(C)n3)c(N(CC3CC3)CC3CC3)nc21 [Example 14, (5-{[(3,5-bis-trifluoromethyl-benzyl)-(2-methyl-2H-tetrazol-5-yl)-amino]-methyl}-1-ethyl-1H-pyrazolo[3,4-b]pyridin-6-yl)-bis-cyclopropylmethyl-amine]
18 | ≤ 1 | CCCCN(CC)c1nc2ccccc2cc1CN(Cc1cc(C(F)(F)F)cc(C(F)(F)F)c1)c1nnn(C)n1 [Example 54]

tested on: not given; experiment: not given; conditions: not given

Row | SMILES | melting point [°C]
19 | CCOC(=O)c1c(CN(Cc2cc(C(F)(F)F)cc(C(F)(F)F)c2)c2nnn(C)n2)c2ccccc2n1C [Example 125, 3-{[(3,5-bis-trifluoromethyl-benzyl)-(2-methyl-2H-tetrazol-5-yl)-amino]-methyl}-1-methyl-1H-indole-2-carboxylic acid ethyl ester] | 83
20 | CCC[S+]([O-])c1nc2c(C)cccc2cc1CN(Cc1cc(C(F)(F)F)cc(C(F)(F)F)c1)C(=O)OCC (centres unmarked) [Example 137, (3,5-bis-trifluoromethyl-benzyl)-[8-methyl-2-(propane-1-sulfinyl)-quinolin-3-ylmethyl]-carbamic acid ethyl ester] | 86

Other lines, results leading:

Row | melting point [°C] | SMILES
21 | 98 | CCN(CC1CCCC1)c1nc2ccccc2cc1CN(Cc1cc(C(F)(F)F)cc(C(F)(F)F)c1)C(N)=S [Example 62, 1-(3,5-bis-trifluoromethyl-benzyl)-1-[2-(cyclopentylmethyl-ethyl-amino)-quinolin-3-ylmethyl]-thiourea]
22 | 123 to 124 | Cc1cccc2cc(CN(Cc3cc(C(F)(F)F)cc(C(F)(F)F)c3)c3ncc(N4CCOCC4)cn3)c(N(CC3CC3)CC3CC3)nc12 [Example 106, (3-{[(3,5-bis-trifluoromethyl-benzyl)-(5-morpholin-4-yl-pyrimidin-2-yl)-amino]-methyl}-8-methyl-quinolin-2-yl)-bis-cyclopropylmethyl-amine]
23 | 98 | CCCS(=O)(=O)c1nc2c(C)cccc2cc1CN(Cc1cc(C(F)(F)F)cc(C(F)(F)F)c1)C(=O)OCC [Example 136, (3,5-bis-trifluoromethyl-benzyl)-[8-methyl-2-(propane-1-sulfonyl)-quinolin-3-ylmethyl]-carbamic acid ethyl ester]
